Data: patent US7872115B2, “Reporter assay screens for protein targets in Saccharomyces cerevisiae” (Schering Corporation, priority 2004, dated 2011)
≈ marks a conversion by molar mass, not a printed value. Like-named read-outs stand apart in the source and are kept apart here.

Assays:
[1] = test system: yeast Y229-1 (PCDC48 (SEQ ID NO: 53)-PH05-Renlla Luciferase); test: MIC determined visually; assay type: cell-based, Saccharomyces cerevisiae; details: minimum inhibitor concentration at which there is an approximately 90% drop in cell number relative to the uninhibited control
[2] = test system: yeast Y229-1 (PCDC48 (SEQ ID NO: 53)-PH05-Renlla Luciferase); test: IC90 calculated from Renilla luciferase light output (baseline promoter reporter); assay type: cell-based, Saccharomyces cerevisiae; details: 24 hours at 30° C., YPD, 1% DMSO
[3] = Saccharomyces cerevisiae, read-out: MIC
[4] = Saccharomyces cerevisiae, inhibitor concentration at which there is a 90% drop in luciferase signal relative to the uninhibited control, read-out: IC90

| SMILES | MIC [1] [mg/L] | IC90 ([2]; inhibitor concentration at which there is a 90% drop in luciferase signal relative to the uninhibited control) [mg/L] | MIC [1, 3] [mg/L] | IC90 [2, 4] [mg/L] | IC90 ([2]; Saccharomyces cerevisiae, […], read-out: IC90) [mg/L] |
| --- | --- | --- | --- | --- | --- |
| C[C@@H]1[C@H](O)[C@@H](C)/C=C/C=C/C=C/C=C/C=C/C=C/C=C/[C@H](O[C@@H]2O[C@H](C)[C@@H](O)[C@H](N)[C@@H]2O)C[C@@H]2O[C@](O)(C[C@@H](O)C[C@@H](O)[C@H](O)CC[C@@H](O)C[C@@H](O)CC(=O)O[C@H]1C)C[C@H](O)[C@H]2C(=O)O [AMB, amphotericin B] | 0.3 (≈ 0.325 µM) | 0.3 (≈ 0.325 µM) | – | – | – |
| C[C@@H](c1ncncc1F)[C@](O)(Cn1cncn1)c1ccc(F)cc1F [VOR, voriconazole] | – | – | 0.015 (≈ 0.0429 µM) | 0.008 (≈ 0.0229 µM) | – |
| Nc1nc(=O)[nH]cc1F [5FC, 5-fluorocytosine] | – | – | 2.5 (≈ 19.4 µM) | 1.9 (≈ 14.7 µM) | – |
| CC[C@H](C)C[C@H](C)CCCCCCCCC(=O)N[C@H]1C[C@@H](O)[C@@H](NCCN)NC(=O)[C@@H]2[C@@H](O)CCN2C(=O)[C@H]([C@H](O)CCN)NC(=O)[C@H]([C@H](O)[C@@H](O)c2ccc(O)cc2)NC(=O)[C@@H]2C[C@@H](O)CN2C(=O)[C@H]([C@@H](C)O)NC1=O [CSP, caspofungin] | – | – | 0.015 (≈ 0.0137 µM) | – | 0.02 (≈ 0.0183 µM) |
| CN(C/C=C/C#CC(C)(C)C)Cc1cccc2ccccc12 [TRB, terbinafine] | – | – | 1.56 (≈ 5.35 µM) | 1.4 (≈ 4.8 µM) | – |
| OC(Cn1cncn1)(Cn1cncn1)c1ccc(F)cc1F [FLU, fluconazole] | – | – | 0.2 (≈ 0.653 µM) | 0.3 (≈ 0.98 µM) | – |
